Results reported in patent US20200063214A1, “METHODS OF IDENTIFYING PATIENTS LIKELY TO BENEFIT FROM TREATMENT WITH A TELOMERASE INHIBITOR” (Geron Corporation, priority 2018, published 2020).
Values joined by “and” are separate entries in the source; they are usually repeats but may differ in a detail not shown here. Identical values can stand only once. “Also recorded” adds a separate entry of the source.

Experiments:
Format in all cases: in vivo, human
[1] = system: intermediate-2 or high-risk myelofibrosis (MF) relapsed/refractory to JAK inhibitor; test: Phase 2 study: spleen response (spleen volume reduction, SVR, by MRI at week 24); settings: for subjects with SVR >= 20% at week 24, No / subjects with SVR >= 20% at week 24, Yes / subjects with SVR >= 35% at wk 24 by IRC, No / subjects with SVR >= 35% at wk 24 by IRC, Yes / subjects with SVR >= 20% at Week 24 by IRC, No / subjects with SVR >= 20% at Week 24 by IRC, Yes / subjects with SVR >= 35% at Week 24 by IRC, Yes / subjects with SVR >= 35% at week 24 by IRC, No: 9.4 mg/kg
From the text: (§1) Diagnosis of primary, post-essential thrombocythemia, or post-polycythemia vera MF was required; other eligibility criteria included measurable splenomegaly (by magnetic resonance imaging [MRI]), active MF-related systemic symptoms and platelet count ≥75×10^9/L. Primary endpoints were: spleen response rate (% achieving ≥35% spleen volume reduction [SVR] by MRI at week 24); and symptom response rate (% achieving ≥50% reduction in total symptom score [TSS] per the Myelofibrosis Symptom Assessment Form (MFSAF) v2 at week 24). Key secondary endpoints included safety, overall survival (OS), treatment response, molecular response, and pharmacokinetic and pharmacodynamic relationships.

[2] = system: intermediate-2 or high-risk myelofibrosis (MF) relapsed/refractory to JAK inhibitor; test: Phase 2 study: symptom response (total symptom score, TSS, MFSAF v2 at week 24); settings: for subjects with TSS >= 50% decrease at week 24, No / subjects with TSS >= 50% decrease at week 24, Yes: 9.4 mg/kg
From the text: as §1

[3] = system: intermediate-2 or high-risk myelofibrosis (MF) relapsed/refractory to JAK inhibitor; test: Phase 2 study: overall survival (OS); settings: 9.4 mg/kg arm
From the text: as §1

[4] = HMR with 1 Mutation, 21 subjects
[5] = HMR with >1 Mutation, 14 subjects
[6] = all patients, first clinical cutoff

For “DNA, d(3′-amino-3′-deoxy-P-thio) (T-A-G-G-G-T-T-A-G-A-C-A-A), 5′-[O-[2-hydroxy-3-(hexadecanoylamino)propyl] phosphorothioate], sodium salt (1:13) [imetelstat sodium]”, the “spleen response rate (>=35% SVR by MRI at week 24)” value ([1]; 9.4 mg/kg IV every 3 weeks arm, all patients (n = 59)) was 10.2%, the “rate of response (SVR or TSS), LMR or HMR with only 1 mutation compared to HMR with more than 1 mutations” value ([1]; 9.4 mg/kg arm, week 24) was “higher rate of response” and the “rate of response (SVR or TSS), TN group compared to Non-TN group” value ([1]; 9.4 mg/kg arm, week 24) was “higher rate of response”. The “subjects with SVR >= 20% at week 24, No” value [1, 4] was 15 (71.4%), the “subjects with SVR >= 20% at week 24, Yes” value [1, 4] was 6 (28.6%) and the “subjects with SVR >= 35% at wk 24 by IRC, No” value [1, 4] was 17 (81%). For the same substance, the “subjects with SVR >= 35% at wk 24 by IRC, Yes” value [1, 4] was 4 (19%), the “subjects with SVR >= 20% at week 24, No” value [1, 5] was 13 (92.9%) and the “subjects with SVR >= 20% at week 24, Yes” value [1, 5] was 1 (7.1%). For the same substance, the “subjects with SVR >= 35% at wk 24 by IRC, Yes” value [1, 5] was 0 (0%), the “subjects with SVR >= 20% at week 24, No” value ([1]; LMR, No Mutation, 22 subjects) was 17 (77.3%) and the “subjects with SVR >= 20% at week 24, Yes” value ([1]; LMR, No Mutation, 22 subjects) was 5 (22.7%). The “subjects with SVR >= 35% at wk 24 by IRC, No” value ([1]; LMR, No Mutation, 22 subjects) was 20 (90.9%), the “subjects with SVR >= 35% at wk 24 by IRC, Yes” value ([1]; LMR, No Mutation, 22 subjects) was 2 (9.1%) and the “subjects with SVR >= 20% at Week 24 by IRC, No” value ([1]; Non-TN, 41 subjects) was 34 (82.9%). The “subjects with SVR >= 20% at Week 24 by IRC, Yes” value ([1]; Non-TN, 41 subjects) was 7 (17.1%), the “subjects with SVR >= 35% at Week 24 by IRC, Yes” value ([1]; Non-TN, 41 subjects) was 3 (7.3%) and the “subjects with SVR >= 35% at week 24 by IRC, No” value ([1]; Non-TN, 41 subjects) was 38 (92.7%). For the same substance, the “subjects with SVR >= 20% at Week 24 by IRC, No” value ([1]; TN, 16 subjects) was 11 (68.75)) %, the “subjects with SVR >= 20% at Week 24 by IRC, Yes” value ([1]; TN, 16 subjects) was 5 (31.25%) and the “subjects with SVR >= 35% at Week 24 by IRC, Yes” value ([1]; TN, 16 subjects) was 3 (18.75%). The “subjects with SVR >= 35% at week 24 by IRC, No” value ([1]; TN, 16 subjects) was 13 (81.25%), the “spleen response rate, comparison by HMR mutation” value ([1]; patients with 1 HMR mutation (ASXL1, EZH2, SRSF2, or IDH1/2)) was “higher” and the “symptom response rate (TSS reduction >=50% at week 24)” value ([2]; 9.4 mg/kg arm, all patients (n = 59)) was 32%. The “subjects with TSS >= 50% decrease at week 24, No” value [2, 4] was 14 (66.7%), the “subjects with TSS >= 50% decrease at week 24, Yes” value [2, 4] was 7 (33.3%) and the “subjects with TSS >= 50% decrease at week 24, No” value [2, 5] was 11 (78.6%). The “subjects with TSS >= 50% decrease at week 24, Yes” value [2, 5] was 3 (21.4%), the “subjects with TSS >= 50% decrease at week 24, No” value ([2]; LMR, No Mutation, 22 subjects) was 14 (63.6%) and the “subjects with TSS >= 50% decrease at week 24, Yes” value ([2]; LMR, No Mutation, 22 subjects) was 8 (36.4%). The “subjects with TSS >= 50% decrease at week 24, No” value ([2]; Non-TN, 41 subjects) was 31 (75.6%), the “subjects with TSS >= 50% decrease at week 24, Yes” value ([2]; Non-TN, 41 subjects) was 10 (24.4%) and the “subjects with TSS >= 50% decrease at week 24, No” value ([2]; TN, 16 subjects) was 8 (50%). The “subjects with TSS >= 50% decrease at week 24, Yes” value ([2]; TN, 16 subjects) was 8 (50%), the “Median survival, months (95% CI)” value ([3]; Non-TN subjects, first clinical cutoff) was 23.6 months and 23.6 (20.7, NE) months and the “OS HR (95% CI)” value ([3]; Non-TN vs TN, first clinical cutoff) was 2.76 (0.81, 9.46). For the same substance, the Death rate % ([3]; Non-TN, first clinical cutoff) was 41.5%, the “Median survival, months (95% CI)” value ([3]; TN subjects, first clinical cutoff) was “has not been reached; also recorded: not estimable; also recorded: NE (23.2, NE)” and the Death rate % ([3]; TN, first clinical cutoff) was 18.8%. The 18-month survival rate [3, 6] was 76.7%, the “median OS” value [3, 6] was “has not been reached” and the “median OS” value ([3]; all patients, second clinical cutoff) was 29.9 months. For the same substance, the “death rate, TN group compared to Non-TN group” value ([3]; first clinical cutoff) was “lower death rate” and the “death rate, TN group compared to Non-TN group” value ([3]; second clinical cutoff) was “lower death rate”.
